Laboratory results from patent US9125913B2, “Bcl-2-selective apoptosis-inducing agents for the treatment of cancer and immune diseases” (AbbVie Inc., priority 2008, dated 2015).

These compounds were tested on GST-Bcl-2 (assay: TR-FRET binding assay, Bcl-2). Conditions: TR-FRET Ki values.
Procedure, shortened: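 Ki values come from Wang's competitive-binding equation applied to TR-FRET signal (excitation 340/35 nm; emission 520/525 nm F-Bak peptide, 495/510 nm Tb antibody). Protein, probe and antibody incubated with compound 3 h at room temperature; dilution series began at 50 μM as 2× stock in 10% DMSO.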

SMILES	Binding selectivity ratio (Bcl-XL Ki/Bcl-2 Ki)
COCCOCCNc1ccc(S(=O)(=O)NC(=O)c2ccc(N3CCN(CC4=C(c5ccc(Cl)cc5)CC(C)(C)CC4)CC3)cc2Oc2ccc3[nH]ccc3c2)cc1[N+](=O)[O-] [EXAMPLE 298, 4-(4-{[2-(4-chlorophenyl)-4,4-dimethylcyclohex-1-en-1-yl]methyl}piperazin-1-yl)-2-(1H-indol-5-yloxy)-N-[(4-{[2-(2-methoxyethoxy)ethyl]amino}-3-nitrophenyl)sulfonyl]benzamide]	1415.7
CC1(C)CCC(CN2CCN(c3ccc(C(=O)NS(=O)(=O)c4ccc(NC5CCS(=O)(=O)C5)c([N+](=O)[O-])c4)c(Oc4cccc5[nH]ccc45)c3)CC2)=C(c2ccc(Cl)cc2)C1 (stereo not drawn) [EXAMPLE 299, 4-(4-{[2-(4-chlorophenyl)-4,4-dimethylcyclohex-1-en-1-yl]methyl}piperazin-1-yl)-N-({4-[(1,1-dioxidotetrahydrothien-3-yl)amino]-3-nitrophenyl}sulfonyl)-2-(1H-indol-4-yloxy)benzamide]	577.7
CC1(C)CCC(CN2CCN(c3ccc(C(=O)NS(=O)(=O)c4ccc(NCC5CCS(=O)(=O)CC5)c([N+](=O)[O-])c4)c(Oc4cccc5[nH]ccc45)c3)CC2)=C(c2ccc(Cl)cc2)C1 [EXAMPLE 301, 4-(4-{[2-(4-chlorophenyl)-4,4-dimethylcyclohex-1-en-1-yl]methyl}piperazin-1-yl)-N-[(4-{[(1,1-dioxidotetrahydro-2H-thiopyran-4-yl)methyl]amino}-3-nitrophenyl)sulfonyl]-2-(1H-indol-4-yloxy)benzamide]	>2268.0
CC1(C)CCC(CN2CCN(c3ccc(C(=O)NS(=O)(=O)c4ccc(NCC(F)F)c([N+](=O)[O-])c4)c(Oc4ccc5[nH]ccc5c4)c3)CC2)=C(c2ccc(Cl)cc2)C1 [EXAMPLE 302, 4-(4-{[2-(4-chlorophenyl)-4,4-dimethylcyclohex-1-en-1-yl]methyl}piperazin-1-yl)-N-({4-[(2,2-difluoroethyl)amino]-3-nitrophenyl}sulfonyl)-2-(1H-indol-5-yloxy)benzamide]	>1309.5
CC1(C)CCC(CN2CCN(c3ccc(C(=O)NS(=O)(=O)c4ccc(NCC5CCOCC5)c(S(=O)(=O)C(F)(F)F)c4)c(Oc4cccc5[nH]ccc45)c3)CC2)=C(c2ccc(Cl)cc2)C1 [EXAMPLE 303, 4-(4-{[2-(4-chlorophenyl)-4,4-dimethylcyclohex-1-en-1-yl]methyl}piperazin-1-yl)-2-(1H-indol-4-yloxy)-N-({4-[(tetrahydro-2H-pyran-4-ylmethyl)amino]-3-[(trifluoromethyl)sulfonyl]phenyl}sulfonyl)benzamide]	>445.9
CC1(C)CCC(CN2CCN(c3ccc(C(=O)NS(=O)(=O)c4ccc(NCC5CCOCC5)c(S(=O)(=O)C(F)(F)F)c4)c(Oc4ccc5[nH]ccc5c4)c3)CC2)=C(c2ccc(Cl)cc2)C1 [EXAMPLE 304, 4-(4-{[2-(4-chlorophenyl)-4,4-dimethylcyclohex-1-en-1-yl]methyl}piperazin-1-yl)-2-(1H-indol-5-yloxy)-N-({4-[(tetrahydro-2H-pyran-4-ylmethyl)amino]-3-[(trifluoromethyl)sulfonyl]phenyl}sulfonyl)benzamide]	>973.5
CC1(C)CCC(CN2CCN(c3ccc(C(=O)NS(=O)(=O)c4ccc(NC5CCC(F)(F)CC5)c([N+](=O)[O-])c4)c(Oc4ccc5[nH]ccc5c4)c3)CC2)=C(c2ccc(Cl)cc2)C1 [EXAMPLE 305, 4-(4-{[2-(4-chlorophenyl)-4,4-dimethylcyclohex-1-en-1-yl]methyl}piperazin-1-yl)-N-({4-[(4,4-difluorocyclohexyl)amino]-3-nitrophenyl}sulfonyl)-2-(1H-indol-5-yloxy)benzamide]	>179.2
CC1(C)CCC(CN2CCN(c3ccc(C(=O)NS(=O)(=O)c4ccc(OCC5(F)CCOCC5)c([N+](=O)[O-])c4)c(Oc4cccc5[nH]ccc45)c3)CC2)=C(c2ccc(Cl)cc2)C1 [EXAMPLE 306, 4-(4-{[2-(4-chlorophenyl)-4,4-dimethylcyclohex-1-en-1-yl]methyl}piperazin-1-yl)-N-({4-[(4-fluorotetrahydro-2H-pyran-4-yl)methoxy]-3-nitrophenyl}sulfonyl)-2-(1H-indol-4-yloxy)benzamide]	622
CC(C)n1cc(CN2CCN(c3ccc(C(=O)NS(=O)(=O)c4ccc(NCC5CCOCC5)c([N+](=O)[O-])c4)c(Oc4ccc5[nH]ccc5c4)c3)CC2)c(-c2ccc(Cl)cc2)cc1=O [EXAMPLE 307, 4-(4-{[4-(4-chlorophenyl)-1-isopropyl-6-oxo-1,6-dihydropyridin-3-yl]methyl}piperazin-1-yl)-2-(1H-indol-5-yloxy)-N-({3-nitro-4-[(tetrahydro-2H-pyran-4-ylmethyl)amino]phenyl}sulfonyl)benzamide]	>177.1
CC1(C)CCC(CN2CCN(c3ccc(C(=O)NS(=O)(=O)c4ccc(C(=O)NCC5CCOCC5)cc4)c(Oc4ccc5[nH]ccc5c4)c3)CC2)=C(c2ccc(Cl)cc2)C1 [EXAMPLE 308, 4-(4-{[2-(4-chlorophenyl)-4,4-dimethylcyclohex-1-en-1-yl]methyl}piperazin-1-yl)-2-(1H-indol-5-yloxy)-N-[(4-{[(tetrahydro-2H-pyran-4-ylmethyl)amino]carbonyl}phenyl)sulfonyl]benzamide]	>11.5
COCCNc1ccc(S(=O)(=O)NC(=O)c2ccc(N3CCN(CC4=C(c5ccc(Cl)cc5)CC(C)(C)CC4)CC3)cc2Oc2cccc3[nH]ccc23)cc1S(=O)(=O)C(F)(F)F [EXAMPLE 309, 4-(4-{[2-(4-chlorophenyl)-4,4-dimethylcyclohex-1-en-1-yl]methyl}piperazin-1-yl)-2-(1H-indol-4-yloxy)-N-({4-[(2-methoxyethyl)amino]-3-[(trifluoromethyl)sulfonyl]phenyl}sulfonyl)benzamide]	>149.4
CC1(C)CCC(CN2CCN(c3ccc(C(=O)NS(=O)(=O)c4ccc(NC[C@H]5CC[C@H](O)CC5)c([N+](=O)[O-])c4)c(Oc4ccc5[nH]ccc5c4)c3)CC2)=C(c2ccc(Cl)cc2)C1 [EXAMPLE 310, Trans-4-(4-{[2-(4-chlorophenyl)-4,4-dimethylcyclohex-1-en-1-yl]methyl}piperazin-1-yl)-N-[(4-{[(4-hydroxycyclohexyl)methyl]amino}-3-nitrophenyl)sulfonyl]-2-(1H-indol-5-yloxy)benzamide]	>13469.4
CO[C@H]1CC[C@H](CNc2ccc(S(=O)(=O)NC(=O)c3ccc(N4CCN(CC5=C(c6ccc(Cl)cc6)CC(C)(C)CC5)CC4)cc3Oc3ccc4[nH]ccc4c3)cc2[N+](=O)[O-])CC1 [EXAMPLE 311, Trans-4-(4-{[2-(4-chlorophenyl)-4,4-dimethylcyclohex-1-en-1-yl]methyl}piperazin-1-yl)-2-(1H-indol-5-yloxy)-N-[(4-{[(4-methoxycyclohexyl)methyl]amino}-3-nitrophenyl)sulfonyl]benzamide]	>2538.5
CC1(C)CCC(CN2CCN(c3ccc(C(=O)NS(=O)(=O)c4ccc(NC[C@H]5CC[C@@H](O)CC5)c([N+](=O)[O-])c4)c(Oc4ccc5[nH]ccc5c4)c3)CC2)=C(c2ccc(Cl)cc2)C1 [EXAMPLE 312, Cis-4-(4-{[2-(4-chlorophenyl)-4,4-dimethylcyclohex-1-en-1-yl]methyl}piperazin-1-yl)-N-[(4-{[(4-hydroxycyclohexyl)methyl]amino}-3-nitrophenyl)sulfonyl]-2-(1H-indol-5-yloxy)benzamide]	>1941.2
CO[C@H]1CC[C@@H](CNc2ccc(S(=O)(=O)NC(=O)c3ccc(N4CCN(CC5=C(c6ccc(Cl)cc6)CC(C)(C)CC5)CC4)cc3Oc3ccc4[nH]ccc4c3)cc2[N+](=O)[O-])CC1 [EXAMPLE 313, Cis-4-(4-{[2-(4-chlorophenyl)-4,4-dimethylcyclohex-1-en-1-yl]methyl}piperazin-1-yl)-2-(1H-indol-5-yloxy)-N-[(4-{[(4-methoxycyclohexyl)methyl]amino}-3-nitrophenyl)sulfonyl]benzamide]	1500
CC1(C)CCC(CN2CCN(c3ccc(C(=O)NS(=O)(=O)c4ccc(OCCC5CCOCC5)c([N+](=O)[O-])c4)c(Oc4cccc5[nH]ccc45)c3)CC2)=C(c2ccc(Cl)cc2)C1 [EXAMPLE 314, 4-(4-{[2-(4-chlorophenyl)-4,4-dimethylcyclohex-1-en-1-yl]methyl}piperazin-1-yl)-2-(1H-indol-4-yloxy)-N-{[3-nitro-4-(2-tetrahydro-2H-pyran-4-ylethoxy)phenyl]sulfonyl}benzamide]	>215.3
COCCNc1ccc(S(=O)(=O)NC(=O)c2ccc(N3CCN(CC4=C(c5ccc(Cl)cc5)CC(C)(C)CC4)CC3)cc2Oc2ccc3[nH]ccc3c2)cc1S(=O)(=O)C(F)(F)F [EXAMPLE 315, 4-(4-{[2-(4-chlorophenyl)-4,4-dimethylcyclohex-1-en-1-yl]methyl}piperazin-1-yl)-2-(1H-indol-5-yloxy)-N-({4-[(2-methoxyethyl)amino]-3-[(trifluoromethyl)sulfonyl]phenyl}sulfonyl)benzamide]	>190.7
CC1(C)CCC(CN2CCN(c3ccc(C(=O)NS(=O)(=O)c4ccc(OCCCS(C)(=O)=O)c([N+](=O)[O-])c4)c(Oc4cccc5[nH]ccc45)c3)CC2)=C(c2ccc(Cl)cc2)C1 [EXAMPLE 316, 4-(4-{[2-(4-chlorophenyl)-4,4-dimethylcyclohex-1-en-1-yl]methyl}piperazin-1-yl)-2-(1H-indol-4-yloxy)-N-({4-[3-(methylsulfonyl)propoxy]-3-nitrophenyl}sulfonyl)benzamide]	533.7
